Measurements as given in patent US20210309631A1, “SALT OF CYCLOHEXANE DERIVATIVE” (priority 2018, published 2021).
Read-outs that look alike come from different tables or passages of the source.

Experiments:
solubility in water = type: physicochemical; conditions: listed as crystal Form A of the free base
[1] = Hygroscopicity (DVS) experiment, 25° C./80% relative humidity; type: physicochemical; conditions: DVS, 25° C./80% relative humidity; listed as Example 1 free base
Procedure: Dynamic vapor sorption curves were collected on a DVS Intrinsic by SMS (Surface Measurement Systems).
20 mg sample of the crystal forms of the Examples and Comparative Examples are placed in the environment of 25° C./80% relative humidity for a dynamic vapor sorption (DVS) test, and the test results […] are shown in Table 5.

[2] = Plasma pharmacokinetics in SD rats after single intragastric administration (Example 7); type: in vivo; conditions: intragastric 1 mg/kg, Mean ± SD, non-compartmental model, listed as free base
Procedure: The in vivo absorption process and characteristics of the free base and four salts thereof (sulfate, hydrochloride salt, phosphate, maleate) of compound (I) in rats were studied. The pharmacokinetics of a single intragastric administration of 1 mg/kg of a compound of Formula I and four salts thereof (calculated by free base concentration in salt form) were studied in SD rats.
SD rats were given a single intragastric administration of 1 mg/kg free base of Example 1 and four salts thereof (including hydrochloride salt from Example 2, sulfate from Example 3, phosphate from Example 4 and maleate from Example 5). There were 4 male rats in each group. The concentration of the compound of Formula I in plasma was determined, and the pharmacokinetic parameters were calculated according to the concentration-time curve.

[3] = In vivo individual difference analysis: individual plasma concentration versus time in rats (Example 8); parameters: species or system SD rats; conditions: intragastric 1 mg/kg; for Plasma Concentrations of Compound of Formula I: listed as Compound of Formula I; for concentration at 0 h: 0 h after administration
Procedure: Compound of Formula I and salts thereof (sulfate, hydrochloride salt, phosphate, maleate), supplied by Shanghai Jingxin Biopharmaceutical Co., Ltd. • Strain: SD rats; Gender: male; Body weight: about 250 grams; Source: shanghai Jiesijie Experimental Animal Co., Ltd Route: single intragastric administration; Capacity: measured in 10 mL/kg body weight Preparation: weighing appropriate amount of the free base or salt of the compound of Formula I, adding a small amount of 0.5% CMC-Na to grind, adding 0.5% CMC-Na to the volume. The concentration is measured as the base. 20 SD rats were divided into 5 groups with 4 rats in each group, fasted for 12 h and drank freely before administration. […] The blood was anticoagulated with 1% heparin, the plasma was separated by 8000 rpm centrifugation for 4 min and stored at -40° C. for testing. LC-MS/MS Method. Pharmacokinetic parameters after administration in rats were calculated using a non-compartmental model of DAS 2.0 software.

## CN(C)C(=O)N[C@H]1CC[C@H](CCN2CCN(c3cccc4ccsc34)CC2)CC1 [Example 1, N′-[trans-4-[2-[7-(benzo[b]thiophene)-7-piperazinyl]ethyl]cyclohexyl]-N,N-dimethylurea]
Solubility in water
  solubility in water: about 0.031 mg/ml
[1]
  Hygroscopicity: Almost no
  Vapor sorption: 0.16%
[2]
  MRT0-∞: 3.63 ± 0.306 h
  Tmax: 0.583 ± 0.289 h
  t1/2: 2.78 ± 0.463 h
[3]; 5 min after administration, Mean ± SD
  Plasma Concentrations of Compound of Formula I: 3.40 ± 5.74 ng/mL
[3]; 5 min after administration, rat 1♂
  Plasma Concentrations of Compound of Formula I: 0.419 ng/mL
[3]; 5 min after administration, rat 2♂
  Plasma Concentrations of Compound of Formula I: 0.624 ng/mL
[3]; 5 min after administration, rat 3♂
  Plasma Concentrations of Compound of Formula I: 12.0 ng/mL
[3]; 5 min after administration, rat 4♂
  Plasma Concentrations of Compound of Formula I: 0.543 ng/mL
[3]; 0.167 h after administration, rat 1♂
  Plasma Concentrations of Compound of Formula I: 6.35 ng/mL
[3]; 0.167 h after administration, rat 3♂
  Plasma Concentrations of Compound of Formula I: 25.8 ng/mL
[3]; 0.333 h after administration, rat 1♂
  Plasma Concentrations of Compound of Formula I: 26.8 ng/mL
[3]; 0.333 h after administration, rat 2♂
  Plasma Concentrations of Compound of Formula I: 33.0 ng/mL
[3]; 0.333 h after administration, rat 3♂
  Plasma Concentrations of Compound of Formula I: 51.8 ng/mL
[3]; 0.5 h after administration, rat 2♂
  Plasma Concentrations of Compound of Formula I: 37.2 ng/mL
[3]; 0.5 h after administration, rat 3♂
  Plasma Concentrations of Compound of Formula I: 51.6 ng/mL
[3]; 1 h after administration, rat 3♂
  Plasma Concentrations of Compound of Formula I: 45.6 ng/mL
[3]; 2 h after administration, rat 3♂
  Plasma Concentrations of Compound of Formula I: 23.9 ng/mL
[3]; 2 h after administration, rat 4♂
  Plasma Concentrations of Compound of Formula I: 40.3 ng/mL
[3]; 4 h after administration, rat 2♂
  Plasma Concentrations of Compound of Formula I: 6.30 ng/mL
[3]; 4 h after administration, rat 3♂
  Plasma Concentrations of Compound of Formula I: 7.95 ng/mL
[3]; 4 h after administration, rat 4♂
  Plasma Concentrations of Compound of Formula I: 16.0 ng/mL
[3]; 6 h after administration, rat 2♂
  Plasma Concentrations of Compound of Formula I: 1.94 ng/mL
[3]; 6 h after administration, rat 4♂
  Plasma Concentrations of Compound of Formula I: 8.91 ng/mL
[3]; 9 h after administration, rat 2♂
  Plasma Concentrations of Compound of Formula I: 0.95 ng/mL
[3]; 9 h after administration, rat 4♂
  Plasma Concentrations of Compound of Formula I: 3.30 ng/mL
[3]; 12 h after administration, rat 1♂
  Plasma Concentrations of Compound of Formula I: 0.372 ng/mL
[3]; 12 h after administration, rat 2♂
  Plasma Concentrations of Compound of Formula I: 0.578 ng/mL
[3]; 12 h after administration, rat 3♂
  Plasma Concentrations of Compound of Formula I: 0.682 ng/mL
[3]; 12 h after administration, rat 4♂
  Plasma Concentrations of Compound of Formula I: 1.66 ng/mL
[3]; 24 h after administration, Mean ± SD
  Plasma Concentrations of Compound of Formula I: 0.497 ± 0.273 ng/mL
[3]; 24 h after administration, rat 1♂
  Plasma Concentrations of Compound of Formula I: 0.487 ng/mL
[3]; 24 h after administration, rat 2♂
  Plasma Concentrations of Compound of Formula I: 0.308 ng/mL
[3]; 24 h after administration, rat 3♂
  Plasma Concentrations of Compound of Formula I: 0.886 ng/mL
[3]; 24 h after administration, rat 4♂
  Plasma Concentrations of Compound of Formula I: 0.306 ng/mL
[3]; male, SD, rat, plasma, oral, 1 mg/kg, Mean ± SD, read-out: Plasma Concentrations of Compound of Formula I
  concentration at 0 h: 0 ng/mL
[3]; male, SD, rat, plasma, oral, 1 mg/kg, rat 1♂, read-out: Plasma Concentrations of Compound of Formula I
  concentration at 0 h: 0 ng/mL
[3]; male, SD, rat, plasma, oral, 1 mg/kg, rat 2♂, read-out: Plasma Concentrations of Compound of Formula I
  concentration at 0 h: 0 ng/mL
[3]; male, SD, rat, plasma, oral, 1 mg/kg, rat 3♂, read-out: Plasma Concentrations of Compound of Formula I
  concentration at 0 h: 0 ng/mL
[3]; male, SD, rat, plasma, oral, 1 mg/kg, rat 4♂, read-out: Plasma Concentrations of Compound of Formula I
  concentration at 0 h: 0 ng/mL
[3]; male, SD, rat, plasma, oral, 1 mg/kg, 0.167 h after administration, Mean ± SD, read-out: Plasma Concentrations of Compound of Formula I
  concentration at 0.167 h: 14.9 ± 8.3 ng/mL
[3]; male, SD, rat, plasma, oral, 1 mg/kg, 0.167 h after administration, rat 2♂, read-out: Plasma Concentrations of Compound of Formula I
  concentration at 0.167 h: 11.3 ng/mL
[3]; male, SD, rat, plasma, oral, 1 mg/kg, 0.167 h after administration, rat 4♂, read-out: Plasma Concentrations of Compound of Formula I
  concentration at 0.167 h: 16.3 ng/mL
[3]; male, SD, rat, plasma, oral, 1 mg/kg, 0.333 h after administration, Mean ± SD, read-out: Plasma Concentrations of Compound of Formula I
  concentration at 0.333 h: 42.2 ± 14.5 ng/mL
[3]; male, SD, rat, plasma, oral, 1 mg/kg, 0.333 h after administration, rat 4♂, read-out: Plasma Concentrations of Compound of Formula I
  concentration at 0.333 h: 57 ng/mL
[3]; male, SD, rat, plasma, oral, 1 mg/kg, 0.5 h after administration, Mean ± SD, read-out: Plasma Concentrations of Compound of Formula I
  concentration at 0.5 h: 46.4 ± 13.7 ng/mL
[3]; male, SD, rat, plasma, oral, 1 mg/kg, 0.5 h after administration, rat 1♂, read-out: Plasma Concentrations of Compound of Formula I
  concentration at 0.5 h: 33.6 ng/mL
[3]; male, SD, rat, plasma, oral, 1 mg/kg, 0.5 h after administration, rat 4♂, read-out: Plasma Concentrations of Compound of Formula I
  concentration at 0.5 h: 63.3 ng/mL
[3]; male, SD, rat, plasma, oral, 1 mg/kg, 1 h after administration, Mean ± SD, read-out: Plasma Concentrations of Compound of Formula I
  concentration at 1 h: 43.7 ± 14.8 ng/mL
[3]; male, SD, rat, plasma, oral, 1 mg/kg, 1 h after administration, rat 1♂, read-out: Plasma Concentrations of Compound of Formula I
  concentration at 1 h: 29.4 ng/mL
[3]; male, SD, rat, plasma, oral, 1 mg/kg, 1 h after administration, rat 2♂, read-out: Plasma Concentrations of Compound of Formula I
  concentration at 1 h: 36.3 ng/mL
[3]; male, SD, rat, plasma, oral, 1 mg/kg, 1 h after administration, rat 4♂, read-out: Plasma Concentrations of Compound of Formula I
  concentration at 1 h: 63.6 ng/mL
[3]; male, SD, rat, plasma, oral, 1 mg/kg, 2 h after administration, Mean ± SD, read-out: Plasma Concentrations of Compound of Formula I
  concentration at 2 h: 25.1 ± 10.6 ng/mL
[3]; male, SD, rat, plasma, oral, 1 mg/kg, 2 h after administration, rat 1♂, read-out: Plasma Concentrations of Compound of Formula I
  concentration at 2 h: 16.8 ng/mL
[3]; male, SD, rat, plasma, oral, 1 mg/kg, 2 h after administration, rat 2♂, read-out: Plasma Concentrations of Compound of Formula I
  concentration at 2 h: 19.2 ng/mL
[3]; male, SD, rat, plasma, oral, 1 mg/kg, 4 h after administration, Mean ± SD, read-out: Plasma Concentrations of Compound of Formula I
  concentration at 4 h: 8.91 ± 4.85 ng/mL
[3]; male, SD, rat, plasma, oral, 1 mg/kg, 4 h after administration, rat 1♂, read-out: Plasma Concentrations of Compound of Formula I
  concentration at 4 h: 5.38 ng/mL
[3]; male, SD, rat, plasma, oral, 1 mg/kg, 6 h after administration, Mean ± SD, read-out: Plasma Concentrations of Compound of Formula I
  concentration at 6 h: 3.99 ± 3.32 ng/mL
[3]; male, SD, rat, plasma, oral, 1 mg/kg, 6 h after administration, rat 1♂, read-out: Plasma Concentrations of Compound of Formula I
  concentration at 6 h: 2.03 ng/mL
[3]; male, SD, rat, plasma, oral, 1 mg/kg, 6 h after administration, rat 3♂, read-out: Plasma Concentrations of Compound of Formula I
  concentration at 6 h: 3.06 ng/mL
[3]; male, SD, rat, plasma, oral, 1 mg/kg, 9 h after administration, Mean ± SD, read-out: Plasma Concentrations of Compound of Formula I
  concentration at 9 h: 1.65 ± 1.13 ng/mL
[3]; male, SD, rat, plasma, oral, 1 mg/kg, 9 h after administration, rat 1♂, read-out: Plasma Concentrations of Compound of Formula I
  concentration at 9 h: 0.876 ng/mL
[3]; male, SD, rat, plasma, oral, 1 mg/kg, 9 h after administration, rat 3♂, read-out: Plasma Concentrations of Compound of Formula I
  concentration at 9 h: 1.47 ng/mL
[3]; male, SD, rat, plasma, oral, 1 mg/kg, 12 h after administration, Mean ± SD, read-out: Plasma Concentrations of Compound of Formula I
  concentration at 12 h: 0.823 ± 0.573 ng/mL
